Data from ChEMBL document CHEMBL1149389 (Bioorg Med Chem Lett, 2006).

What was measured:
[1] = biological target: D(3) dopamine receptor (Homo sapiens, UniProt P35462); test: Binding affinity to human cloned dopamine D3 receptor
[2] = biological target: D(2) dopamine receptor (Homo sapiens, UniProt P14416); test: Binding affinity to human cloned dopamine D2 receptor
[3] = tested on: Liver microsomes; test: Metabolic stability in rat liver microsomes; type: ADME, Microsome
[4] = tested on: Liver microsomes; test: Metabolic stability in human liver microsomes; type: ADME, Microsome
[5] = Permeability across Caco-2 cell membrane; type: ADME, cell-based; conditions: human
[6] = tested on: Rattus norvegicus; test: Antagonism of agonist-induced huddling deficits in orally administered rat; type: functional; conditions: po

Chain of D(3) dopamine receptor (P35462 whole entry): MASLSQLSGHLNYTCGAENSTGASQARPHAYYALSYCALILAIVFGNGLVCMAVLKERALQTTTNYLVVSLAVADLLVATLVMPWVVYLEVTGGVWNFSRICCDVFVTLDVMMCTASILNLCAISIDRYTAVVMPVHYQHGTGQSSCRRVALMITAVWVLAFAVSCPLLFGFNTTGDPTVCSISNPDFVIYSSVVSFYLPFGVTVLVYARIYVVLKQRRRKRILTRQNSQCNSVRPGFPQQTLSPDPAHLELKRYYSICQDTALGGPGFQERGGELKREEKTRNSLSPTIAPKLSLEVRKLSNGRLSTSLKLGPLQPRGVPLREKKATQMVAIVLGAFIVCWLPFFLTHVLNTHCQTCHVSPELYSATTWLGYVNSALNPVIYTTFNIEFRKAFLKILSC
Chain of D(2) dopamine receptor (P14416 whole entry): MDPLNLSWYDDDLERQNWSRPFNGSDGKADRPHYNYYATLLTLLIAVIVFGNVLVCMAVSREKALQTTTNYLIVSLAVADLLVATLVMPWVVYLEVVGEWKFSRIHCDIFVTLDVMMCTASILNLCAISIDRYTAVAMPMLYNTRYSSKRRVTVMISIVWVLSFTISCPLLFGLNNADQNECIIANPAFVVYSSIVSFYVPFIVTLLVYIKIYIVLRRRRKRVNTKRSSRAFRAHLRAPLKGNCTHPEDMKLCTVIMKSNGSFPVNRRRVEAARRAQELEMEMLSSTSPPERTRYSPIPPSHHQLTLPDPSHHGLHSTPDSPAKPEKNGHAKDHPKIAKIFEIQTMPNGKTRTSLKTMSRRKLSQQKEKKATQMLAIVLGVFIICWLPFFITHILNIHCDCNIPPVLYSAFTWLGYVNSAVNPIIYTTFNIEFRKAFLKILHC

Ki [1] [nM] | Ki [2] [nM] | Structure (SMILES) | other results
– | 302 | CC(C)(C)c1nc(N2CCN(CCCCn3ccc(C4CCCCC4)nc3=O)CC2)cc(C(F)(F)F)n1 | –
11.8 | 610 | Cn1c(=O)ccn(CCCCN2CCN(c3cc(C(F)(F)F)nc(C(C)(C)C)n3)CC2)c1=O | –
– | 168 | CC(C)(C)c1nc(N2CCN(CCCCn3ccc(-c4ccccc4)nc3=O)CC2)cc(C(F)(F)F)n1 | –
– | 320 | Cc1cn(CCCCN2CCN(c3cc(C(F)(F)F)nc(C(C)(C)C)n3)CC2)c(=O)[nH]c1=O | Stability [3]: > 97%; Stability [4]: > 97%; Papp [5]: 1.94 ×10⁻⁶ cm/s; ED50 [6]: 6.1 mg/kg
– | 220 | CC(C)(C)c1nc(N2CCN(CCCCn3cc(Cl)c(=O)[nH]c3=O)CC2)cc(C(F)(F)F)n1 | –
3.4 | 89.4 | CC(C)(C)c1nc(N2CCN(CCCCn3ccc(N4CCCCC4)nc3=O)CC2)cc(C(F)(F)F)n1 | –
– | 473 | CC(C)(C)c1nc(N2CCN(CCCCn3cc(C#N)c(=O)[nH]c3=O)CC2)cc(C(F)(F)F)n1 | –
– | 290 | CCOc1ccn(CCCCN2CCN(c3cc(C(F)(F)F)nc(C(C)(C)C)n3)CC2)c(=O)n1 | –
– | 216 | CC(C)(C)c1ccn(CCCCN2CCN(c3cc(C(F)(F)F)nc(C(C)(C)C)n3)CC2)c(=O)n1 | –
3.7 | 155 | CC(C)(C)c1nc(N2CCN(CCCCn3ccc(C4CC4)nc3=O)CC2)cc(C(F)(F)F)n1 | –
– | 307 | Cc1ccn(CCCCN2CCN(c3cc(C(F)(F)F)nc(C(C)(C)C)n3)CC2)c(=O)n1 | –
– | 273 | CC(C)(C)c1nc(N2CCN(CCCCn3ccc(C4CCC4)nc3=O)CC2)cc(C(F)(F)F)n1 | –
1.7 | 148 | CCc1cn(CCCCN2CCN(c3cc(C(F)(F)F)nc(C(C)(C)C)n3)CC2)c(=O)[nH]c1=O | –
– | 602 | CC(C)(C)c1nc(N2CCN(CCCCn3cc(F)c(=O)[nH]c3=O)CC2)cc(C(F)(F)F)n1 | –
12.9 | 447 | CC(C)(C)c1nc(N2CCN(CCCCn3cccnc3=O)CC2)cc(C(F)(F)F)n1 | –
– | 646 | CC(C)(C)c1nc(N2CCN(CCCCn3cc(C(F)(F)F)c(=O)[nH]c3=O)CC2)cc(C(F)(F)F)n1 | –
– | 196 | CC(C)(C)c1nc(N2CCN(CCCCn3ccc(=O)[nH]c3=O)CC2)cc(C(F)(F)F)n1 | –
10.4 | 356 | Cc1cn(CCCCN2CCN(c3cc(C(F)(F)F)nc(C(C)(C)C)n3)CC2)c(=O)n(C)c1=O | –
– | 351 | CC(C)(C)c1nc(N2CCN(CCCSc3nccc(O)n3)CC2)cc(C(F)(F)F)n1 [ABT-925] | –

Structure (SMILES) | Ki [1] [nM] | Ki [2] [nM] | other results
CC(C)(C)c1nc(N2CCN(CCCCn3ccc(N4CCC4)nc3=O)CC2)cc(C(F)(F)F)n1 | 4.4 | 82.1 | –
